The test concerns HCV genotype 1a replicon. In words: HCV genotype 1a replicon assay (NS3 protease activity readout). Type of test: cell-based, hepatitis C virus. Particulars: for Genotype 1a: HCV genotype 1a replicon; for EC50: Hepatitis C virus, read-out: Genotype 1a, HCV genotype 1a replicon. An outline of the steps:
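Genotype 1a subgenomic replicon cells (APC89, Huh7.5) were treated with compound dose-responses in G418-free medium, 0.5% DMSO final, for 48 or 72 hours at 37° C. Lysate NS3/4a protease activity measured with 15 μM FRET substrate, 20 min at 37° C (ex 340/em 509 nm); EC50 by 4-parameter fit.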
A general note: Replicon systems follow genome replication, usually without infectious particles.

Molecules are shown by their SMILES.

As to `COC(=O)N[C@H](C(=O)N1C[C@@H](C)C[C@H]1c1nc(-c2ccc(-c3ccc(C(=O)Nc4ccc(N5C[C@H](C)N(C(=O)C6CC6C)C[C@H]5C)nc4)cc3OC(F)(F)F)cc2)c(Cl)[nH]1)C(C)C` (some centres unmarked) [Example 4-13], the “Genotype 1a” value was “C (C represents pEC50 between and 9 and about 10, (EC50 between 1 nM and 0.1 nM))”. With `COC(=O)N[C@H](C(=O)N1C[C@@H](C)C[C@H]1c1nc(-c2ccc(-c3cc(Cl)c(NC(=O)c4ccc(N5CCN(C(=O)NN6CCS(=O)(=O)CC6)C[C@H]5C)nc4)cc3OC(F)(F)F)cc2)c[nH]1)C(C)C` [Example 12-19], the EC50 is < 0.1 nM. As to `COC(=O)N[C@H](C(=O)N1C[C@@H](C)C[C@H]1c1nc(-c2ccc(-c3cc(Cl)c(NC(=O)c4ccc(N5CCN(C(=O)C6CCO6)C[C@H]5C)nc4)cc3OC(F)(F)F)cc2)c[nH]1)C(C)C` (some centres unmarked) [Example 12-49], the EC50 is < 0.1 nM. Take `COC(=O)N[C@H](C(=O)N1C[C@@H](C)C[C@H]1c1nc(-c2ccc(-c3cc(Cl)c(NC(=O)c4ccc(N5CCN(C(=O)[C@H]6CCCN6C(=O)C(C)C)C[C@H]5C)nc4)cc3OC(F)(F)F)cc2)c[nH]1)C(C)C` [Example 1-49]: the “Genotype 1a” value is reported as “D (D represents pEC50>10 (EC50<0.1 nM))”. `COC[C@H]1C[C@@H](c2nc(-c3ccc(-c4ccc(C(=O)Nc5ccc(N6CCN(C(=O)C(C)(C)C)C[C@H]6C)nc5)c(Cl)c4OC(F)(F)F)cc3)c[nH]2)N(C(=O)[C@@H](NC(=O)OC)C(C)C)C1` [Example 25-7]: the “Genotype 1a” value was “B (B represents pEC50 between 8 and 9 (EC50 between 1 and 10 nM))”. For the molecule `COC(=O)N[C@H](C(=O)N1C[C@@H](C)C[C@H]1c1nc(-c2ccc(-c3cc(Cl)c(NC(=O)c4ccc(N5CCN(C(=O)C(C)(C)C)C[C@H]5C)nc4)cc3OC(F)(F)F)cc2)c[nH]1)C1CCCC1` [Example 13-41], the EC50 was < 0.1 nM.

In the case of `COC(=O)N[C@@H](C(=O)N1C[C@@H](OC)C[C@H]1c1nc(-c2ccc(-c3cc(Cl)c(NC(=O)c4ccc(N5CCN(C(=O)C(C)(C)CO)C[C@H]5C)nc4)cc3C(F)(F)F)cc2)c[nH]1)C1CCCCC1` [Example 19-14], the “Genotype 1a” value was “A (A represents a pEC50 value between 6 and 8 (EC50 between 1 μM and 10 nM))”. For `COC(=O)N[C@H](C(=O)N1C[C@@H](C)C[C@H]1c1nc(-c2ccc(-c3cc(Cl)c(NC(=O)c4ccc(N5CCN(C(=O)CC6CCOCC6)C[C@H]5C)nc4)cc3OC(F)(F)F)cc2)c[nH]1)C(C)C` [Example 12-28], the EC50 was < 0.1 nM. Turning to `COC(=O)N[C@H](C(=O)N1CC(C)(C)C[C@H]1c1nc(-c2ccc(-c3cc(F)c(NC(=O)c4ccc(N5CCN(C(=O)[C@]6(C)CCCN6C(=O)[C@@H](NC(=O)OC)C(C)C)C[C@H]5C)nc4)cc3C(F)(F)F)cc2)c[nH]1)C(C)C` [Example 3-2], the “Genotype 1a” value is on record as “D (D represents pEC50>10 (EC50<0.1 nM))”.

As for `COC(=O)N[C@H](C(=O)N1C[C@@H](C)C[C@H]1c1nc(-c2ccc(-c3cc(Cl)c(NC(=O)c4ccc(N5C[C@H](C)N(C(=O)[C@H]6CCCN6C(=O)OC)C[C@H]5C)nc4)cc3OC(F)(F)F)cc2)c[nH]1)C(C)C` [Example 1-46], the “Genotype 1a” value is on record as “D (D represents pEC50>10 (EC50<0.1 nM))”.

For `COC(=O)N[C@H](C(=O)N1C[C@@H](C)C[C@H]1c1nc(-c2ccc(-c3cc(Cl)c(NC(=O)c4ccc(N5CCN(C(=O)C6CC(N)C6)C[C@H]5C)nc4)cc3OC(F)(F)F)cc2)c[nH]1)C(C)C` (some centres unmarked) [Example 12-52], the EC50 was in the range of 0.1 to 1 nM. Turning to `COC(=O)N[C@H](C(=O)N1CC(C)(C)C[C@H]1c1nc(-c2ccc(-c3cc(F)c(NC(=O)c4ccc(N5CCN(C(=O)C6CC6)C[C@H]5C)nc4)cc3C(F)(F)F)cc2)c[nH]1)C(C)C` [Example 3-3], the EC50 lay in the range of 0.1 to 1 nM.

As for `COC(=O)N[C@H](C(=O)N1[C@@H](C)CC[C@H]1c1nc(-c2ccc(-c3ccc(C(=O)Nc4ccc(N5CCN(C(=O)C(C)(C)C)C[C@H]5C)nc4)cc3OC(F)(F)F)cc2)c(Cl)[nH]1)C(C)C` [Example 18-2], the “Genotype 1a” value is “C (C represents pEC50 between and 9 and about 10, (EC50 between 1 nM and 0.1 nM))”. For the molecule `COC(=O)N[C@H](C(=O)N1CC2(C[C@H]1c1nc(-c3ccc(-c4ccc(NC(=O)c5ccc(N6CCN(C(=O)[C@]7(C)CCCN7C(=O)[C@@H](NC(=O)OC)C(C)C)C[C@H]6C)nc5)cc4OC(F)(F)F)cc3)c[nH]1)OCCO2)C(C)C` [Example 5-1], the EC50 is < 0.1 nM. `COC(=O)N[C@H](C(=O)N1C[C@@H](C)C[C@H]1c1nc(-c2ccc(-c3cc(F)c(NC(=O)c4ccc(N5CCN(C(=O)[C@]6(C)CCCN6C(=O)OC(C)(C)C)C[C@H]5C)nc4)cc3OC(F)(F)F)cc2)c[nH]1)C(C)C` [Example 1-26]: the “Genotype 1a” value was “D (D represents pEC50>10 (EC50<0.1 nM))”. Take `COC(=O)N[C@H](C(=O)N1C[C@@H](C)C[C@H]1c1nc(-c2ccc(-c3ccc(C(=O)Nc4ccc(N5CCN(C(=O)[C@H]6CC6(C)C)C[C@H]5C)nc4)cc3)cc2)c[nH]1)C1CCOCC1` [Example 22-2]: the “Genotype 1a” value was “D (D represents pEC50>10 (EC50<0.1 nM))”. As for `COC(=O)N[C@H](C(=O)N1C[C@@H](C)C[C@H]1c1nc(-c2ccc(-c3ccc(NC(=O)c4ccc(N5CCN(C(=O)N(C)C)C[C@H]5C)nc4)cc3C(F)(F)F)cc2)c[nH]1)C(C)C` [Example 1-64], the “Genotype 1a” value is “C (C represents pEC50 between and 9 and about 10, (EC50 between 1 nM and 0.1 nM))”. Still for that read-out and setting: then `COC(=O)NC(C(=O)N1C(C)CCC1c1nc(-c2ccc(-c3ccc(C(=O)Nc4ccc(N5CCN(C(=O)C6CC6(C)C)CC5C)nc4)cc3OC(F)(F)F)cc2)c[nH]1)C(C)C` (centres unmarked) [Example 18-3], with “C (C represents pEC50 between and 9 and about 10, (EC50 between 1 nM and 0.1 nM))”.

`COC(=O)NC(C(=O)N1C[C@@H](OC)C[C@H]1c1nc(-c2ccc(-c3cc(Cl)c(NC(=O)c4ccc(N5CCN(C(=O)C(C)(C)C)C[C@H]5C)nc4)cc3C(F)(F)F)cc2)c[nH]1)C1CCS(=O)(=O)CC1` (single isomer, unassigned) [Example 19-18]: the “Genotype 1a” value is “C (C represents pEC50 between and 9 and about 10, (EC50 between 1 nM and 0.1 nM))”. The same measure, in the same setting: then `COC(=O)N[C@H](C(=O)N1C[C@@H](OC)C[C@H]1c1nc(-c2ccc(-c3cc(Cl)c(NC(=O)c4ccc(N5CCN(C(=O)C(C)(C)C(=O)O)C[C@H]5C)nc4)cc3OC(F)(F)F)cc2)c[nH]1)C1CCOCC1` [Example 28-23], with “C (C represents pEC50 between and 9 and about 10, (EC50 between 1 nM and 0.1 nM))”; and `COC(=O)N[C@H](C(=O)N1C[C@@H](O)C[C@H]1c1nc(-c2ccc(-c3ccc(NC(=O)c4ccc(N5CCN(C(=O)c6c[nH]cn6)C[C@H]5C)nc4)cc3)cc2)c[nH]1)C(C)C` [Example 26-2], with “B (B represents pEC50 between 8 and 9 (EC50 between 1 and 10 nM))”; and `COC(=O)N[C@H](C(=O)N1C[C@@H](C)C[C@H]1c1nc(-c2ccc(-c3cc(Cl)c(NC(=O)c4ccc(N5CCN(C(=O)C(C)(C)CO)C[C@H]5C)nc4)cc3C(F)(F)F)cc2)c[nH]1)C1CCOCC1` [Example 19-4], with “D (D represents pEC50>10 (EC50<0.1 nM))”.

`COC(=O)NC(C(=O)N1CC(F)CC1c1nc(-c2ccc(-c3cc(Cl)c(NC(=O)c4ccc(N5CCN(C(=O)C(C)(C)CO)CC5C)nc4)cc3OC(F)(F)F)cc2)c[nH]1)C1CCOCC1` (centres unmarked) [Example 29-4]: the “Genotype 1a” value is “D (D represents pEC50>10 (EC50<0.1 nM))”. In the case of `COC(=O)N[C@H](C(=O)N1CC(C)(C)C[C@H]1c1nc(-c2ccc(-c3ccc(C(=O)Nc4ccc(N5CCN(C(=O)[C@]6(C)CCCN6C(=O)[C@@H](NC(=O)OC)C(C)C)C[C@H]5C)nc4)cc3OC(F)(F)F)cc2)c[nH]1)C(C)C` [Example 6-6], the EC50 was 0.1 to 1 nM. `COC[C@H]1C[C@@H](c2nc(-c3ccc(-c4ccc(C(=O)Nc5ccc(N6CCN(C(=O)C(C)(C)C)C[C@H]6C)nc5)c(Cl)c4OC(F)(F)F)cc3)c[nH]2)N(C(=O)[C@@H](NC(=O)OC)C2CCOCC2)C1` [Example 25-6]: the “Genotype 1a” value is “C (C represents pEC50 between and 9 and about 10, (EC50 between 1 nM and 0.1 nM))”.

Regarding `CNC(=O)N1CCC[C@@]1(C)C(=O)N1CCN(c2ccc(C(=O)Nc3cc(OC(F)(F)F)c(-c4ccc(-c5c[nH]c([C@@H]6C[C@H](C)CN6C(=O)[C@@H](NC(=O)OC)C(C)C)n5)cc4)cc3Cl)cn2)[C@H](C)C1` [Example 1-22], the “Genotype 1a” value is reported as “D (D represents pEC50>10 (EC50<0.1 nM))”. With `COC(=O)N[C@H](C(=O)N1C[C@@H](C)C[C@H]1c1nc(-c2ccc(-c3cc(Cl)c(NC(=O)c4ccc(N5CCN(C(=O)C6(N(C)C)CC6)C[C@H]5C)nc4)cc3OC(F)(F)F)cc2)c[nH]1)C(C)C` [Example 12-10], the EC50 was < 0.1 nM.

For `CCC(=O)N1CCN(c2ccc(C(=O)Nc3cc(OC(F)(F)F)c(-c4ccc(-c5c[nH]c([C@@H]6C[C@H](C)CN6C(=O)[C@@H](NC(=O)OC)C(C)C)n5)cc4)cc3Cl)cn2)[C@H](C)C1` [Example 1-73], the “Genotype 1a” value is reported as “D (D represents pEC50>10 (EC50<0.1 nM))”. `CNC(=O)N1CCC[C@@H]1C(=O)N1C[C@@H](C)N(c2ccc(C(=O)Nc3cc(OC(F)(F)F)c(-c4ccc(-c5c[nH]c([C@@H]6C[C@H](C)CN6C(=O)[C@@H](NC(=O)OC)C(C)C)n5)cc4)cc3Cl)cn2)C[C@@H]1C` [Example 1-44]: the “Genotype 1a” value was “D (D represents pEC50>10 (EC50<0.1 nM))”.

For the molecule `COC(=O)NC(C(=O)N1CC(OC)CC1c1nc(-c2ccc(-c3ccc(NC(=O)c4ccc(N5CCN(C(=O)C(C)(C)CO)CC5C)nc4)cc3OC(F)(F)F)cc2)c[nH]1)C(C)(C)O` (centres unmarked) [Example 16-17], the “Genotype 1a” value was “D (D represents pEC50>10 (EC50<0.1 nM))”.

As for `C[C@H]1C[C@@H](c2nc(-c3ccc(-c4cc(Cl)c(NC(=O)c5ccc(N6CCN(C(=O)C(C)(C)C)C[C@H]6C)nc5)cc4OC(F)(F)F)cc3)c[nH]2)N(C(=O)C(c2ccccc2)N2CCNCC2)C1` (some centres unmarked) [Example 13-3], the EC50 is 0.1 to 1 nM. With `COC(=O)N[C@H](C(=O)N1C[C@@H](C)C[C@H]1c1nc(-c2ccc(-c3cc(F)c(C(=O)Nc4ccc(N5CCN(C(=O)[C@H]6CC6(C)C)C[C@H]5C)nc4)cc3OC(F)(F)F)cc2)c[nH]1)C(C)C` [Example 4-43], the “Genotype 1a” value is “C (C represents pEC50 between and 9 and about 10, (EC50 between 1 nM and 0.1 nM))”.

The record behind these values is US9212168B2 (priority 2011, dated 2015).
